The supplement of paper PMC13380429

Legend:
Details in all cases: 72 h
U2OS [1] = experiment: cell viability relative to DMSO; higher = less toxic
Caco-2 [2] = experiment: as above
HepG2 [3] = experiment: as above
Calu-3 [4] = experiment: as above
Vero E6 [5] = experiment: as above
U2OS [6] = experiment: drug sensitivity score (DSS) for viability; higher = more toxic; extreme values may be limits of the assay
Caco-2 [7] = experiment: as above
HepG2 [8] = experiment: as above
Calu-3 [9] = experiment: as above
Vero E6 [10] = experiment: as above
U2OS [11] = experiment: relative viability EC50 (midpoint between 100% and the lowest measured viability); higher = less toxic
Caco-2 [12] = experiment: as above
HepG2 [13] = experiment: as above
Calu-3 [14] = experiment: as above
Vero E6 [15] = experiment: as above

Row | Structure (SMILES) | cell viability (U2OS [1]; 1 nM) [%] | cell viability (U2OS [1]; 10 nM) [%] | cell viability (U2OS [1]; 100 nM) [%] | cell viability (U2OS [1]; 1000 nM) [%] | cell viability (U2OS [1]; 10000 nM) [%] | cell viability (Caco-2 [2]; 1 nM) [%] | cell viability (Caco-2 [2]; 10 nM) [%] | cell viability (Caco-2 [2]; 100 nM) [%] | cell viability (Caco-2 [2]; 1000 nM) [%] | cell viability (Caco-2 [2]; 10000 nM) [%] | cell viability (HepG2 [3]; 1 nM) [%] | cell viability (HepG2 [3]; 10 nM) [%] | cell viability (HepG2 [3]; 100 nM) [%] | cell viability (HepG2 [3]; 1000 nM) [%] | cell viability (HepG2 [3]; 10000 nM) [%] | cell viability (Calu-3 [4]; 1 nM) [%] | cell viability (Calu-3 [4]; 10 nM) [%] | cell viability (Calu-3 [4]; 100 nM) [%] | cell viability (Calu-3 [4]; 1000 nM) [%] | cell viability (Calu-3 [4]; 10000 nM) [%] | cell viability (Vero E6 [5]; 1 nM) [%] | cell viability (Vero E6 [5]; 10 nM) [%] | cell viability (Vero E6 [5]; 100 nM) [%] | cell viability (Vero E6 [5]; 1000 nM) [%] | cell viability (Vero E6 [5]; 10000 nM) [%] | drug sensitivity score (U2OS [6]) | drug sensitivity score (Caco-2 [7]) | drug sensitivity score (HepG2 [8]) | drug sensitivity score (Calu-3 [9]) | drug sensitivity score (Vero E6 [10]) | relative viability EC50 (U2OS [11]) [µM] | relative viability EC50 (Caco-2 [12]) [µM] | relative viability EC50 (HepG2 [13]) [µM] | relative viability EC50 (Calu-3 [14]) [µM] | relative viability EC50 (Vero E6 [15]) [µM]
1 | CN(C)c1cc(CNCC(C)(C)C)c(O)c2c1C[C@H]1C[C@H]3[C@H](N(C)C)C(O)=C(C(N)=O)C(=O)[C@@]3(O)C(O)=C1C2=O [omadacycline] | 102 | 103 | 99.9 | 102 | 98.2 | 107 | 95.1 | 100 | 97.4 | 96.4 | 101 | 90.9 | 96.9 | 105 | 87 | 108 | 91.4 | 102 | 88.9 | 92.4 | 96.3 | 101 | 97.1 | 98.8 | 97.3 | 0 | 0 | 0 | 0.3 | 0 | > 10 | > 10 | > 10 | > 10 | > 10
2 | CCC[C@H](N[C@@H](C)C(=O)N1[C@H](C(=O)O)C[C@@H]2CCCC[C@@H]21)C(=O)O [perindoprilat] | 95.2 | 98.5 | 94.6 | 105 | 92.2 | 103 | 93.9 | 107 | 96.8 | 138 | 104 | 96.3 | 103 | 105 | 96.5 | 100 | 96.1 | 90.6 | 103 | 93.2 | 104 | 104 | 100 | 95.3 | 97.8 | 0 | 0 | 0 | 0 | 0 | > 10 | > 10 | > 10 | > 10 | > 10
3 | CC(C)c1cc(C(=O)N2Cc3ccc(CN4CCN(C)CC4)cc3C2)c(O)cc1O | 101 | 102 | 85.3 | 8.1 | 3.4 | 98.5 | 94.8 | 85.8 | 40 | 39.1 | 108 | 103 | 28.4 | 1.5 | 1.2 | 101 | 96.4 | 77.8 | 41.7 | 38.9 | 104 | 104 | 101 | 40.4 | 30.7 | 18.8 | 13.1 | 26 | 13.3 | 11 | 0.232 | 0.174 | 0.068 | 0.145 | 0.492
4 | Cc1cc2nc3c(=O)[nH]c(=O)nc-3n(C)c2cc1C=O [Ro-08-2750] | 94.4 | 99.2 | 94.1 | 97.8 | 5.6 | 92.4 | 90 | 96.4 | 90.2 | 40 | 109 | 105 | 100 | 109 | 37.1 | 104 | 103 | 96 | 102 | 81.9 | 96.6 | 94.3 | 97.6 | 92.5 | 101 | 5.5 | 4.9 | 2.9 | 0.4 | 0 | 3 | 1.91 | 3.78 | > 10 | > 10
5 | CC(=O)OCC1=C(C(=O)O)N2C(=O)[C@@H](NC(=O)CCCC(N)C(=O)O)C2SC1 (stereo not given in full) [cephalosporin-c-zn] | 97.1 | 98.1 | 94.9 | 92.7 | 104 | 88.7 | 78 | 94.1 | 89.6 | 99.2 | 103 | 88.2 | 81.8 | 112 | 102 | 93.2 | 104 | 91.5 | 97.7 | 99.5 | 93.6 | 87.4 | 90.9 | 100 | 104 | 0 | 0 | 0 | 0 | 0 | > 10 | > 10 | > 10 | > 10 | > 10
6 | Cc1ncc(OC[C@@]2(c3cccc(F)c3)C[C@H]2C(=O)Nc2ccc(F)cn2)c(C)n1 [lemborexant] | 100 | 100 | 96 | 101 | 98.1 | 94.9 | 97.5 | 89.6 | 94.5 | 100 | 97.1 | 103 | 97.8 | 97.9 | 97.3 | 100 | 100 | 97.6 | 99.6 | 106 | 97.4 | 98.1 | 96.8 | 101 | 96.2 | 0 | 0 | 0 | 0 | 0 | > 10 | > 10 | > 10 | > 10 | > 10
7 | Nc1ncnc2c1ncn2CCOCP(=O)(O)O [adefovir] | 90 | 99.1 | 94.1 | 98 | 100 | 106 | 100 | 90.2 | 85.7 | 110 | 104 | 99.6 | 98.5 | 98.7 | 101 | 97.4 | 103 | 104 | 98.2 | 96.2 | 109 | 90.7 | 91.2 | 104 | 108 | 0 | 0 | 0 | 0 | 0 | > 10 | > 10 | > 10 | > 10 | > 10
